Laboratory results as given in patent US12510533B2, “Methods for treating multiple myeloma and the use of companion biomarkers for 4-(4-(4-(((2-(2,6-dioxopiperidin-3-yl)-1-oxoisoindolin-4-yl)oxy)methyl)benzyl)piperazin-1-yl)-3-fluorobenzonitrile” (Celgene Corporation, priority 2018, dated 2025).

How the values were obtained:
[1] = tested on: H929-1051 and OPM2-P10 cells; test: Apoptosis induction in H929-1051 and OPM2-P10 multiple myeloma cells; format: cell-based, human; details: 15 minute or 6 hour transient exposure
Protocol: FIG. 10 illustrates that continuous, but not transient, exposure to Compound 2 induced apoptosis in multiple myeloma cells. Apoptosis induction by Compound 2 treatment in a lenalidomide-resistant MM cell model (H929-1051 [top row] and a pomalidomide-resistant MM cell model OPM2-P10 [bottom row]) is presented.
The effect of Aiolos and Ikaros degradation on induction of apoptosis was also evaluated. The nearly complete and prolonged substrate suppression observed upon continuous exposure of Compound 2 coincided with apoptosis induction in MM cells (FIG. 10). A continuous single exposure to 0.01 and 0.1 μM Compound 2 led to induction of apoptosis in H929-1051 and OPM2-P10 cells (within 50 to 75 hours) (FIG. 10).

Ikaros and Aiolos = test: Immunoblot of Ikaros and Aiolos in DF15R and DF15R-human CRBN WT cells; format: cell-based; details: 0.1 μM, 4 hours
Protocol: Shown are Cereblon, Ikaros, and Aiolos immunoblots of extracts from DF15R and DF15R-human CRBN^WT cells that were incubated with DMSO, pomalidomide, or Compound 2 at 0.1 μM for 4 hours. Tubulin is a loading control.
To determine whether cereblon could serve as a biomarker for predicting response to Compound 2, the myeloma cell line DF15R was treated with Compound 2.

K562 cells = test: Killing of untreated K562 cells by IL-2-activated PBMCs treated with compound (co-culture, Annexin V/PI); format: cell-based; details: Homo sapiens, IL-2-activated PBMCs treated 72 hours, read-out: IC50, direct K562 cell killing by treated PBMCs
Protocol: Freshly isolated human PBMCs were cultured with recombinant IL-2 at concentration of 20 units/mL for 72 hours. Peripheral blood mononuclear cells were then spun down and re-suspended in fresh RPMI complete medium to 2×10^6 cells/mL. Cells were then treated with DMSO or Compound 2 at the indicated concentrations and incubated for an additional 72 hours. The PBMCs were then washed twice in fresh RPMI complete medium prior to coculture. K562 cells were re-suspended to a cell density of 1×10^6 cells/mL and stained with 1 μM CellTrace CFSE according to manufacturer's instructions. The labeled K562 cells were then seeded into a 96-well round bottom plate at 1×10^5 cells/well. […] Specific target cell lysis by PBMC mediated apoptosis was measured using Annexin V-fluorescein isothiocyanate (FITC) and propidium iodide (PI) according to manufacturer's instructions and samples were run on the FACS Array scan. […] All myeloma cell lines were kept in log phase, and cell density and viability were monitored by trypan blue exclusion using the Vi-CELL XR cell viability analyzer. […] Frozen PBMC donors, were thawed at 37° C. for 2 minutes in RPMI medium with 10% FBS and cell counts and viability were measured on the Vi-CELL® (Beckman Coulter). […] Peripheral blood mononuclear cells were counted and added to the MM cells at a target:effector (T:E) ratio of 1:5. […]

Aiolos, Ikaros, ZFP91 = test: Immunoblot of OPM2 cells after five-day incubation; format: cell-based, human; details: Compound 2 alone
Protocol: FIG. 4 illustrates that Compound 2 induced the degradation of Ikaros, Aiolos, ZFP91, c-Myc, and IRF4, which correlates with induction of the apoptotic protein cleaved-Caspase 3, and the cell cycle arrest protein p21. Immunoblot analysis of OPM2 parental cells incubated with Compound 2 at the indicated concentrations is shown. Actin is a loading control.
Ikaros and Aiolos degradation was followed by reduction in the levels of two additional and highly critical transcription factors, c-Myc and IRF4 (FIG. 4). The loss or reduction of these factors was associated with an increase of the cyclin-dependent kinase inhibitor p21 and induction of apoptosis, as measured by cleaved caspase-3 (FIG. 4).

NCI-H929 = test: Tumor cell lysis by anti-CD3-activated, compound-treated PBMCs, co-culture with untreated NCI-H929; format: cell-based; details: Homo sapiens; lenalidomide-sensitive NCI-H929, untreated; 24-hour co-culture

## N#Cc1ccc(N2CCN(Cc3ccc(COc4cccc5c4CN([C@H]4CCC(=O)NC4=O)C5=O)cc3)CC2)c(F)c1 [Compound 2, (S)-4-(4-(4-(((2-(2,6-dioxopiperidin-3-yl)-1-oxoisoindolin-4-yl)oxy)methyl)benzyl)piperazin-1-yl)-3-fluorobenzonitrile]
[1]
  effect of transient exposure on apoptosis: precluded the induction of apoptosis
Ikaros and Aiolos; DF15R cells, no detectable CRBN
  degradation of Ikaros or Aiolos: did not show any degradation
Ikaros and Aiolos; DF15R-human CRBN WT cells
  degradation of Ikaros and Aiolos after reintroduction of CRBN: reactivated
K562 cells
  IC50: 0.0059 nM
Aiolos, Ikaros, ZFP91
  expression level of Aiolos and Ikaros, as well as ZFP91: significantly decreased
NCI-H929
  IC50: 5 nM
